The record followed here is ChEMBL document CHEMBL5678818, “Discovery of potent SOS1 inhibitors that block RAS activation via disruption of the RAS-SOS1 interaction” (Proc Natl Acad Sci U S A, 2019).

SMILES strings stand for the structures. Calls of active or inactive are those of the source. The rule behind the calls is not given here.

The target in test [1] is Serine/threonine-protein kinase Nek4 (Homo sapiens) (UniProt P51957). Nature of the test: Inhibition of NEK4 (unknown origin) assessed as residual activity at 100 nM by KINOMEscan analysis relative to control.
Test [2] has as its target Vascular endothelial growth factor receptor 2 (Homo sapiens) (UniProt P35968). Nature of the test: Inhibition of VEGFR2 (unknown origin) assessed as residual activity at 100 nM by KINOMEscan analysis relative to control.
The subject of test [3] is Fibroblast growth factor receptor 3 (Homo sapiens), P22607 [G697C]. Briefly: Inhibition of FGFR3 G697C mutant (unknown origin) assessed as residual activity at 100 nM by KINOMEscan analysis relative to control.
For another test, the species on record is Homo sapiens. Nature of the test: Inhibition of N-terminal His10-tagged recombinant human KRAS G12C/C118S mutant (1 to 169 residues) expressed in Escherichia coli/Series S C1 sensor chip-immobilized biotinylated N-terminal His10-tagged wild-type recombinant human SOS1 catalytic domain (564 to 1049 residues) expressed in Escherichia coli protein-protein interaction at 10 uM measured for 360 secs by SPR analysis. The note with it: time 360.0 sec. For orientation: Surface plasmon resonance follows binding to a sensor surface in real time, without labels.

Test [4] deals with T1, Serine/threonine-protein kinase Nek5 (Homo sapiens) (UniProt Q6P3R8).
T1 sequence (whole entry): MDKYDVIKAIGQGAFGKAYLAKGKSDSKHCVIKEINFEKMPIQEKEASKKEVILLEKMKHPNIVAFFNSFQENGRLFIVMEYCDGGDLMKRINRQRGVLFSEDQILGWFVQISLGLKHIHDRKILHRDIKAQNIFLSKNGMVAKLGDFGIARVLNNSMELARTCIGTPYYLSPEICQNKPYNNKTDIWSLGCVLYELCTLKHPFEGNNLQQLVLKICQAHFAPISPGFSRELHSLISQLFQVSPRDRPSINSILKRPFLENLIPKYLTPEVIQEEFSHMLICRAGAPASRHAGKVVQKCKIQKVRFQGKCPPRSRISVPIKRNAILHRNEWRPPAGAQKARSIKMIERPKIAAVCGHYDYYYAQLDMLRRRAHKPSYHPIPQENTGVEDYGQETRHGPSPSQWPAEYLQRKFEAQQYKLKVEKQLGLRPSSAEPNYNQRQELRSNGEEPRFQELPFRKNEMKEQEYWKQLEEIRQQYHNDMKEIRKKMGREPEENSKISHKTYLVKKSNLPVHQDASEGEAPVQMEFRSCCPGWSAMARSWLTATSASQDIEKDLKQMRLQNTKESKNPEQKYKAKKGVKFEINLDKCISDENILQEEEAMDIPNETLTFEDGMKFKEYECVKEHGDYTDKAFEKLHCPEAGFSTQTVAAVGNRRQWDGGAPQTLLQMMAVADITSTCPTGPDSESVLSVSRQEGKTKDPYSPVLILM
Briefly: Inhibition of NEK5 (unknown origin) assessed as residual activity at 100 nM by KINOMEscan analysis relative to control.

The target of test [5] is Tyrosine-protein kinase CSK (Homo sapiens) (UniProt P41240). Briefly: Inhibition of CSK (unknown origin) assessed as residual activity at 100 nM by KINOMEscan analysis relative to control.
The target of test [6] is T2, Serine/threonine-protein kinase TNNI3K (Homo sapiens) (UniProt Q59H18).
T2 sequence (whole entry): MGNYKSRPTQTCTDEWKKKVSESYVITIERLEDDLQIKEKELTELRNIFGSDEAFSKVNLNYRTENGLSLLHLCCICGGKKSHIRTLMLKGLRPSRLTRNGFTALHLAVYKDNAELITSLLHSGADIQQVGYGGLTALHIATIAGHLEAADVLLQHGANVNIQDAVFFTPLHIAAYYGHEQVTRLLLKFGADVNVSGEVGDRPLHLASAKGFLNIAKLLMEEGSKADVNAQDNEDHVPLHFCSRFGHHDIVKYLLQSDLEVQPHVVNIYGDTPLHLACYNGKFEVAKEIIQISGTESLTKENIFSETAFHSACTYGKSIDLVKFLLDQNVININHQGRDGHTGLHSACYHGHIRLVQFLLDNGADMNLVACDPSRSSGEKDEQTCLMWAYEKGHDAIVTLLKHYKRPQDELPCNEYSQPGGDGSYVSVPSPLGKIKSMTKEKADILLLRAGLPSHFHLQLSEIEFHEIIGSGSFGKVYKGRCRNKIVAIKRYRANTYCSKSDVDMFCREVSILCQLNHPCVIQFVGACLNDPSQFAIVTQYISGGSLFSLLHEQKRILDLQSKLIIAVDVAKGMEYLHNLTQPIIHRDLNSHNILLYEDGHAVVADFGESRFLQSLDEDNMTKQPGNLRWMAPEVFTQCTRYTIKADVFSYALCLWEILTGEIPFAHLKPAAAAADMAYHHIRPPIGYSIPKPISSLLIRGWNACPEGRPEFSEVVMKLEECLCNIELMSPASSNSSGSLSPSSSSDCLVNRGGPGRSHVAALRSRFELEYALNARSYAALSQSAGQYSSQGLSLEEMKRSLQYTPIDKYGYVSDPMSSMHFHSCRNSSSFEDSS
Nature of the test: Inhibition of TNNI3K (unknown origin) assessed as residual activity at 100 nM by KINOMEscan analysis relative to control.

For test [7], the target named is Serine/threonine-protein kinase 32B (Homo sapiens) (UniProt Q9NY57). Briefly: Inhibition of YANK2 (unknown origin) assessed as residual activity at 100 nM by KINOMEscan analysis relative to control.
Test [8] relates to ALK tyrosine kinase receptor (Homo sapiens), Q9UM73 [L1196M]. Nature of the test: Inhibition of ALK L1196M mutant (unknown origin) assessed as residual activity at 100 nM by KINOMEscan analysis relative to control.
Test [9] deals with G protein-coupled receptor kinase 4 (Homo sapiens) (UniProt P32298). Briefly: Inhibition of GRK4 (unknown origin) assessed as residual activity at 100 nM by KINOMEscan analysis relative to control.
Test [10] addresses Tyrosine-protein kinase Fer (Homo sapiens) (UniProt P16591). Briefly: Inhibition of FER (unknown origin) assessed as residual activity at 100 nM by KINOMEscan analysis relative to control.
The subject of test [11] is Tyrosine-protein kinase ABL1 (Homo sapiens), P00519 [E255K]. Nature of the test: Inhibition of phosphorylated ABL1 E255K mutant (unknown origin) assessed as residual activity at 100 nM by KINOMEscan analysis relative to control.
Test [12] concerns the target Eukaryotic translation initiation factor 2-alpha kinase 1 (Homo sapiens) (UniProt Q9BQI3). Nature of the test: Inhibition of EIF2AK1 (unknown origin) assessed as residual activity at 100 nM by KINOMEscan analysis relative to control.
Test [13] has as its target Mitogen-activated protein kinase kinase kinase 20 (Homo sapiens) (UniProt Q9NYL2). Nature of the test: Inhibition of ZAK (unknown origin) assessed as residual activity at 100 nM by KINOMEscan analysis relative to control.
In test [14] the target is Activin receptor type-2B (Homo sapiens) (UniProt Q13705). Nature of the test: Inhibition of ACVR2B (unknown origin) assessed as residual activity at 100 nM by KINOMEscan analysis relative to control.
Activin receptor type-2B (Homo sapiens), sequence (Q13705 whole entry): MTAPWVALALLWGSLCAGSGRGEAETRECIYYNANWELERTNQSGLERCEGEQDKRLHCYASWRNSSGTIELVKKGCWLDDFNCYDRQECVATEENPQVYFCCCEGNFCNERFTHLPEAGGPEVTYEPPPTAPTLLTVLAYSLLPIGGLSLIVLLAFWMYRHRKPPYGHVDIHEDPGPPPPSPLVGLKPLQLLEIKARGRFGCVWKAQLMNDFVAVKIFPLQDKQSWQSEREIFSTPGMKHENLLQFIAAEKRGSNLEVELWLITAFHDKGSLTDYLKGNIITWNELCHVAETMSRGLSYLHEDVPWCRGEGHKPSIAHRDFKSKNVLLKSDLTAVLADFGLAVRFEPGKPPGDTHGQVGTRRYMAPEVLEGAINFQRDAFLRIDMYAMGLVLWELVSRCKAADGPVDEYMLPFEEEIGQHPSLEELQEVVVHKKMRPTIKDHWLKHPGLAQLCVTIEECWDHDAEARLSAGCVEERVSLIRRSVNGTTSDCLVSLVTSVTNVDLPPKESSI

Vascular endothelial growth factor receptor 2 (Homo sapiens), sequence (P35968 whole entry): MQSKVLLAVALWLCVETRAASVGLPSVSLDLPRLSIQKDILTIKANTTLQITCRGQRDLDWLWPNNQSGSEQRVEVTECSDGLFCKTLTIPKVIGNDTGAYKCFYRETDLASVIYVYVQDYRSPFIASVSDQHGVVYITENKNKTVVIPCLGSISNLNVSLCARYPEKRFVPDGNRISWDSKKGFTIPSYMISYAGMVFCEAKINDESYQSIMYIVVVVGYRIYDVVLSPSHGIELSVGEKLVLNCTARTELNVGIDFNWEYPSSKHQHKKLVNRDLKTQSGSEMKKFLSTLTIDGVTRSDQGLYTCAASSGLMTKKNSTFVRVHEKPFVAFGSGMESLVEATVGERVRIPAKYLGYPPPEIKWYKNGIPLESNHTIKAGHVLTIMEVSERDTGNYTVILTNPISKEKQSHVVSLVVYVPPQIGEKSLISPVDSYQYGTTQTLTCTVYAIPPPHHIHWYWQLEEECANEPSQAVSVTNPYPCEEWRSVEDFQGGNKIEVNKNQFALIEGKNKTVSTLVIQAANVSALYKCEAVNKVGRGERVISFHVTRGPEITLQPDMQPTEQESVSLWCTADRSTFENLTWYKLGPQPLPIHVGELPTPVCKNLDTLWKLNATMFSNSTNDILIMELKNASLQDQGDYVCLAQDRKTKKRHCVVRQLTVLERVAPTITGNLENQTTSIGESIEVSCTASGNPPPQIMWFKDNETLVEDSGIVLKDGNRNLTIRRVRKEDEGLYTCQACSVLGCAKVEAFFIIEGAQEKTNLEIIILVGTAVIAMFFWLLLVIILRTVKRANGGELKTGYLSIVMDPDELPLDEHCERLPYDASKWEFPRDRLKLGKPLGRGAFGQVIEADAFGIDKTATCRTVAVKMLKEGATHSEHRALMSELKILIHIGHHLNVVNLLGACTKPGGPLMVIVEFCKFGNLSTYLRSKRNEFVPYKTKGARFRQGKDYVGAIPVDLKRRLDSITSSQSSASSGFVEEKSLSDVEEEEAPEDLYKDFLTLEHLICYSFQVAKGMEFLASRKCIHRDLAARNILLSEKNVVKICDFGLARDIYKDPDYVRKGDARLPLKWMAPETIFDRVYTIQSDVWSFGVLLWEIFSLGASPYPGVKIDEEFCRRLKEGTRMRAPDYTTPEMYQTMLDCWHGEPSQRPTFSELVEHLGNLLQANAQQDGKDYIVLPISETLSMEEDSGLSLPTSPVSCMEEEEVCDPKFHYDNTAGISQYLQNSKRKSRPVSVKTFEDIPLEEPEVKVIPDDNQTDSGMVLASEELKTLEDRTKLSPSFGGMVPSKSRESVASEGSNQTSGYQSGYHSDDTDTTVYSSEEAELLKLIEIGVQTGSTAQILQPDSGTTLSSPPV
Fibroblast growth factor receptor 3 (Homo sapiens), P22607 [G697C], sequence (P22607 whole entry G697C, the tested form may be a part): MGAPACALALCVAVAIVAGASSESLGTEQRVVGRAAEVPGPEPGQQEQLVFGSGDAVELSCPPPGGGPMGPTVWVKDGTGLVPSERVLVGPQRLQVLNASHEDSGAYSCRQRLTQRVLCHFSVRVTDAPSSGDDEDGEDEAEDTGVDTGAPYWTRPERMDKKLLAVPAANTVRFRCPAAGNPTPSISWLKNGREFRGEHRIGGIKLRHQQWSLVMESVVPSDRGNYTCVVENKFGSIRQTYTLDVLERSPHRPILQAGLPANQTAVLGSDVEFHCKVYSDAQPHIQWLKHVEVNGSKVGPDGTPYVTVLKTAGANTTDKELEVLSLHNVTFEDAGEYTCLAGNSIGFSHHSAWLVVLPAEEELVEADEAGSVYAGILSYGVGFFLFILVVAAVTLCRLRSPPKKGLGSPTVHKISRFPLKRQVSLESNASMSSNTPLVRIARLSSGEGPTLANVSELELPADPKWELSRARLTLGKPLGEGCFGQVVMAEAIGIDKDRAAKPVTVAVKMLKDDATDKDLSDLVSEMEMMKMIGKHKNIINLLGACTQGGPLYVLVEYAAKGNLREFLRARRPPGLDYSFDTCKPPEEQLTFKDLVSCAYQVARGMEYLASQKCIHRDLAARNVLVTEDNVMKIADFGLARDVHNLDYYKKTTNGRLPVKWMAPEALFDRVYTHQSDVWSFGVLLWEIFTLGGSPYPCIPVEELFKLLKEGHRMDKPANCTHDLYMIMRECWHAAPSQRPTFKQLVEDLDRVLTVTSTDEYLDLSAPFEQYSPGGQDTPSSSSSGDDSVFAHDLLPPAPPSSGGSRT
Tyrosine-protein kinase Fer (Homo sapiens), sequence (P16591 whole entry, looked up): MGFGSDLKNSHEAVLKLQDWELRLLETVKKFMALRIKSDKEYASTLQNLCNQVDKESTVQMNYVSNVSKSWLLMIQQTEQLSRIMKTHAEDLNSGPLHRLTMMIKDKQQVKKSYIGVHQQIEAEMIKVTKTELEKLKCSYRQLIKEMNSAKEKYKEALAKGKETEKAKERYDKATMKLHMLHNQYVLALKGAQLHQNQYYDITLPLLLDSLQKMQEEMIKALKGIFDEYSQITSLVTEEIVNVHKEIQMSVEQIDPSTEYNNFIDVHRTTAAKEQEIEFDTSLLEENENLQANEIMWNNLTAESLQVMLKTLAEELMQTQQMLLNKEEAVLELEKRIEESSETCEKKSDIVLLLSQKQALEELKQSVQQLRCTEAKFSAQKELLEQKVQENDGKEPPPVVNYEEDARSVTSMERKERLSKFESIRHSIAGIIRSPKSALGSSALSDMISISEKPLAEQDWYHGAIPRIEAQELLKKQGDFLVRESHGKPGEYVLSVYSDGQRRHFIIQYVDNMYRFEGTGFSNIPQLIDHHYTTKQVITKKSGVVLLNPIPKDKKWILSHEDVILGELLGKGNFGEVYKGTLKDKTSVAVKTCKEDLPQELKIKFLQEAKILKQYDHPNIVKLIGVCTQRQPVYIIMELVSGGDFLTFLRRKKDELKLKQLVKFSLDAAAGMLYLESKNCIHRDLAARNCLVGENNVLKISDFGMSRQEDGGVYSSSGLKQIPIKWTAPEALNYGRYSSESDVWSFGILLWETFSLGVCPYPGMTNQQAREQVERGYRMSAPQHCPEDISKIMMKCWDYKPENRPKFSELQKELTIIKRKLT
Eukaryotic translation initiation factor 2-alpha kinase 1 (Homo sapiens), sequence (Q9BQI3 whole entry): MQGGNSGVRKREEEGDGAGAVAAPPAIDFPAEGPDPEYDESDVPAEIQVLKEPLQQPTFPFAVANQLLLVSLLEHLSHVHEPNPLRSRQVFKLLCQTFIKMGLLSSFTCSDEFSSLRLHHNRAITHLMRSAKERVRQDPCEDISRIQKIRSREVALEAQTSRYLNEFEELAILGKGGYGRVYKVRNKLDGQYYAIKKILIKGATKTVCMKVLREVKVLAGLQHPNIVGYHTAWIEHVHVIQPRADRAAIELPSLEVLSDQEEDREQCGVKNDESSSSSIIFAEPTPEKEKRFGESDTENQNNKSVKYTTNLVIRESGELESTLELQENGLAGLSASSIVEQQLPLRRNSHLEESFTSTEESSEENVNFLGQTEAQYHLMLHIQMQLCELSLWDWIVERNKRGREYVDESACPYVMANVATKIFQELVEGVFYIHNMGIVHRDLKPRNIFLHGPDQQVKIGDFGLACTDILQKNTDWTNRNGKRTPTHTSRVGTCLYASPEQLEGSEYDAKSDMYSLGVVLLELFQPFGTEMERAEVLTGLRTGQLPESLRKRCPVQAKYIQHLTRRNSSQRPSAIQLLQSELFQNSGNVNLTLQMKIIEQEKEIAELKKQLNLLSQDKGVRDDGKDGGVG
Mitogen-activated protein kinase kinase kinase 20 (Homo sapiens), sequence (Q9NYL2 2-800 limits assumed): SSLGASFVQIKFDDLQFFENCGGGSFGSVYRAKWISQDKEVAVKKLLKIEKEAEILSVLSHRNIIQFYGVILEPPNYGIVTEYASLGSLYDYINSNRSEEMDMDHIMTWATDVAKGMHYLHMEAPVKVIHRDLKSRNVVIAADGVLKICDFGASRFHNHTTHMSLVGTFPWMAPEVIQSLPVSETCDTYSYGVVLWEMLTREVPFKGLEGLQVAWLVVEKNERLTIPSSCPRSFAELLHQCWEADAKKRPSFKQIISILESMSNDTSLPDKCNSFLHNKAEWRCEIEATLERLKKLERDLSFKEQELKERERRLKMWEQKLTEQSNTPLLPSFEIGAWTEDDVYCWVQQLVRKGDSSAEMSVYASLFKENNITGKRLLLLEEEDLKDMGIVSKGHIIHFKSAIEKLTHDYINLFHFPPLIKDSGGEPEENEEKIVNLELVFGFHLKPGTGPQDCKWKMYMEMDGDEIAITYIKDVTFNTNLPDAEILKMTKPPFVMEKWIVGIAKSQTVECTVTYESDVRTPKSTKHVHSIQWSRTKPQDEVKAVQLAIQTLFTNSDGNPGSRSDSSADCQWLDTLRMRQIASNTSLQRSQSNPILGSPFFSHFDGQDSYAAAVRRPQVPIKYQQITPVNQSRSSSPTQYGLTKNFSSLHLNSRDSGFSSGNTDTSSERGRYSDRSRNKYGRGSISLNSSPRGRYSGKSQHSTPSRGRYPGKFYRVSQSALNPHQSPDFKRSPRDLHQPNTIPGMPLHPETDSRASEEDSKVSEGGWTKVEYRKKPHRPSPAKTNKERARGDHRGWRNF

On to `COc1cc2ncnc(N[C@H](C)c3cccc4ccccc34)c2cc1OC`, for which the Activity in [1] was determined as 72%; in test [2], 75%; in test [3] it was 66%; in test [4] it was 31%; in test [5] it was 90%; in test [6], 85%. Moreover, the Activity in [7] stood at 84%; in test [8] it was 66%; in [9], 62%; in [10], 100%; in [11] it was 99%; in [12], 67%. Moreover, the figures for the Activity in test [13] and in [14] were 51% and 91%, respectively. The outcome in the test listed under Homo sapiens was Active.
